Laboratory results published in the supplement of paper PMC10307832.

Columns and labels:
Assay in all cases: relative viability (nuclei count vs DMSO), 5 days (fraction); higher = more cells survive
[1] = compound: C1CC1C(=O)NC2=NNC3=C2C=CC(=C3)C4=CC(=CC=C4)C(=O)NC5CC5 [XMD13-2] + C[C@@H](Oc1cc(-c2cnn(C3CCNCC3)c2)cnc1N)c1c(Cl)ccc(F)c1Cl [Crizotinib] (partner 1 µM)
How it was run: (§1)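 Lung cancer cell lines in 1536-well plates were dosed by pin tool the day after seeding, either with one drug alone or with a fixed anchor-drug dose plus five library-drug doses (not always all listed) in √10 steps. After 5 days, cells were fixed and their nuclei stained in one step (final 0.05% Triton X-100, 1% formaldehyde, 1 ug/ml Hoechst), then counted on 4× images. Relative viability is the nuclei count in treated wells divided by that in vehicle wells. Values are medians of duplicate plates.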

[2] = compound: C1CC1C(=O)NC2=NNC3=C2C=CC(=C3)C4=CC(=CC=C4)C(=O)NC5CC5 [XMD13-2] + O=C(CCCCCCC(=O)Nc1ccccc1)NO [Vorinostat] (partner 1 µM)
How it was run: as §1

[3] = compound: Cc1ccc(C(=O)Nc2cccc(C(F)(F)F)c2)cc1Nc1cncc(C(N)=O)c1 [ALW-II-49-7] + C[C@@H](Oc1cc(-c2cnn(C3CCNCC3)c2)cnc1N)c1c(Cl)ccc(F)c1Cl [Crizotinib] (partner 1 µM)
How it was run: as §1

[4] = compound: Cc1nc(Nc2ncc(C(=O)Nc3c(C)cccc3Cl)s2)cc(N2CCN(CCO)CC2)n1 [Dasatinib] + C[C@@H](Oc1cc(-c2cnn(C3CCNCC3)c2)cnc1N)c1c(Cl)ccc(F)c1Cl [Crizotinib] (partner 1 µM)
How it was run: as §1

Cell Line | relative viability ([1]; first compound 0.05 µM) | relative viability ([1]; first compound 0.1581 µM) | relative viability ([1]; first compound 0.5 µM) | relative viability ([1]; first compound 1.581 µM) | relative viability ([1]; first compound 5 µM) | relative viability ([2]; first compound 0.05 µM) | relative viability ([2]; first compound 0.1581 µM) | relative viability ([2]; first compound 0.5 µM) | relative viability ([2]; first compound 1.581 µM) | relative viability ([2]; first compound 5 µM) | relative viability ([3]; first compound 0.08 µM) | relative viability ([3]; first compound 0.253 µM) | relative viability ([3]; first compound 0.8 µM) | relative viability ([3]; first compound 2.53 µM) | relative viability ([3]; first compound 8 µM) | relative viability ([4]; first compound 0.005 µM) | relative viability ([4]; first compound 0.01581 µM) | relative viability ([4]; first compound 0.05 µM) | relative viability ([4]; first compound 0.1581 µM) | relative viability ([4]; first compound 0.5 µM)
LXF-289 | 0.863 | 0.831 | 0.473 | 0.789 | 0.811 | 0.864 | 0.767 | 0.86 | 0.959 | 0.808 | 0.817 | 0.817 | 0.911 | 0.923 | 0.876 | 0.849 | 0.912 | 0.857 | 0.197 | 0.136
NCI-H1650 | 1.31 | 0.861 | 1.02 | 0.989 | 1.16 | 0.661 | 0.584 | 0.576 | 0.594 | 0.555 | 0.946 | 0.859 | 0.931 | 1.01 | 1.14 | 0.801 | 0.619 | 0.456 | 0.303 | 0.239
NCI-H1755 | 0.982 | 0.85 | 0.861 | 0.856 | 0.922 | 0.827 | 0.685 | 0.875 | 0.926 | 0.795 | 0.917 | 0.859 | 0.753 | 0.79 | 0.69 | 0.696 | 0.657 | 0.365 | 0.202 | 0.174
HCC-15 | 0.925 | 0.766 | 0.857 | 0.793 | 0.472 | 0.971 | 0.862 | 0.957 | 0.764 | 0.823 | 0.805 | 0.86 | 0.786 | 0.831 | 0.886 | 0.873 | 0.699 | 0.743 | 0.514 | 0.489
EMC-BAC-2 | 0.818 | 0.79 | 0.795 | 0.745 | 0.36 | 0.502 | 0.43 | 0.438 | – | 0.36 | 0.677 | 0.728 | 0.737 | 0.588 | 0.509 | 0.754 | 0.516 | 0.425 | 0.247 | 0.221
NCI-H1734 | 0.91 | 0.655 | 0.66 | 0.594 | 0.474 | 1.02 | 0.777 | 0.753 | 0.685 | 0.547 | 0.787 | 0.642 | 0.614 | 0.762 | 0.651 | 0.553 | 0.485 | 0.515 | 0.301 | 0.35
HOP-62 | 0.871 | 0.889 | 0.933 | 0.939 | 0.439 | 0.612 | 0.587 | 0.658 | 0.694 | 0.537 | 0.855 | 1.05 | 1.02 | 0.563 | 0.817 | 1.16 | 0.966 | 0.91 | 0.816 | 0.165
LK-2 | 0.214 | 0.219 | 0.25 | 0.207 | 0.227 | 0.439 | 0.201 | 0.212 | 0.198 | 0.137 | 0.216 | 0.211 | 0.215 | 0.262 | 0.226 | 0.266 | 0.209 | 0.222 | 0.189 | 0.179
SW 1573 | 1.11 | 0.429 | 0.815 | 0.668 | 0.322 | 0.786 | 0.625 | 0.853 | 0.844 | 0.385 | 0.884 | 0.747 | 0.748 | 1.1 | 0.707 | 0.826 | 0.689 | 0.624 | 0.429 | 0.356
SK-LU-1 | 0.912 | 0.966 | 1 | 0.828 | 0.944 | 0.874 | 0.831 | 0.959 | 0.719 | 0.74 | 0.863 | 0.898 | 0.988 | 0.853 | 0.584 | 0.558 | 0.417 | 0.35 | 0.251 | 0.251
NCI-H23 | 0.759 | 0.518 | 0.506 | 0.411 | 0.423 | 0.681 | 0.46 | 0.625 | 0.646 | 0.675 | 0.419 | 0.475 | 0.493 | 0.598 | 0.509 | 0.409 | 0.425 | 0.385 | 0.304 | 0.213
NCI-H1355 | 1.07 | 1.12 | 1.09 | 1.01 | 0.941 | 0.704 | 0.601 | 0.694 | 0.624 | 0.638 | 1 | 1.03 | 1.11 | 0.928 | 0.935 | 1.04 | 0.781 | 0.983 | 0.585 | 0.443
COR-L23 | 0.746 | 0.51 | 0.765 | 0.653 | 0.759 | 0.58 | 0.566 | 0.737 | 0.368 | 0.544 | 0.688 | 0.601 | 0.626 | 0.614 | 0.793 | 0.514 | 0.5 | 0.35 | 0.234 | 0.267
NCI-H2023 | 0.738 | 0.592 | 0.62 | 0.556 | 0.809 | 0.837 | 0.668 | 0.696 | 0.731 | 0.94 | 0.703 | 0.714 | 0.554 | 0.622 | 0.729 | 0.491 | 0.492 | 0.376 | 0.281 | 0.26
A-427 | 1.01 | 0.872 | 0.812 | 0.724 | 0.34 | 0.927 | 0.852 | 0.862 | – | 0.705 | 1.01 | 0.816 | 0.855 | 0.878 | 0.969 | 0.761 | 0.719 | 0.701 | 0.495 | 0.442
NCI-H596 | 1.05 | 0.916 | 0.98 | 0.884 | 1.05 | 0.726 | 0.612 | 0.582 | 0.61 | 1.02 | 0.892 | 0.911 | 0.978 | 0.997 | 1.07 | 0.966 | 0.811 | 0.637 | 0.519 | 0.315
LU99A | 0.581 | 0.489 | 0.558 | 0.429 | 0.393 | 0.536 | 0.43 | 0.522 | 0.561 | 0.468 | 0.535 | 0.508 | 0.521 | 0.604 | 0.546 | 0.538 | 0.458 | 0.473 | 0.274 | 0.301
IA-LM | 0.674 | 0.794 | 0.65 | 0.664 | 0.528 | 0.954 | 1.05 | 0.96 | – | 0.718 | 0.825 | 0.754 | 0.745 | 0.346 | 0.18 | 1.05 | 1.06 | 1.45 | 0.674 | 0.442
NCI-H2009 | 1.09 | 1.03 | 1.05 | 1 | 1.12 | 0.838 | 0.732 | 0.835 | 0.783 | 0.804 | 1.02 | 1.02 | 0.964 | 0.835 | 0.729 | 0.947 | 0.936 | 0.684 | 0.314 | 0.141
